Measured values reported in patent US20240009182A1, “REPURPOSED COMPOUND AS THERAPEUTIC FOR HPV-ASSOCIATED CANCERS” (The Chinese University of Hong Kong, priority 2022, published 2024).

What was measured:
[1] = test system: HPV16 E7 protein in CaSki cells; assay: HPV16 E7 protein level by western blotting in treated CaSki cells; format: cell-based; details: for E7 protein level after inhibitor treatment: 24-hr treatment
Excerpt: FIG. 1A. The representative immunoblots showing the level of HPV16 E7 constitutively expressed in CaSki cells upon treatment with inhibitors specific for USP7 (P5091, FT671, GNE-6776 and HBX 19818) and that targeting pan-USPs (PR-619) at the indicated concentrations. DMSO served as a vehicle control treatment. Cells were then collected and lysed, the levels of USP7 and HPV16 E7 proteins were detected using the respective specific antibodies. Beta-actin (β-actin) was included as a loading control. KDa: kilodalton. FIG. 1B. The bar chart showing the relative protein level of HPV16 E7 normalized by β-actin (n=3). Data are expressed as mean±standard error of the mean (SEM); Right panel showing the images at 100× magnification of the morphology of the CaSki cells treated with P5091, FT671, GNE-6776, HBX 19818 and PR-619 at concentrations indicated. FIG. 1C. The immunoblots showing the levels of USP7 and HPV16 E7 proteins in CaSki and C-33A (an HPV-null cervical cancer cell line) upon downregulation of USP7 using siRNA targeting specifically against human USP7. FIG. 1D. The immunoblots showing the protein level of HPV16 E7 treated with different concentrations of HBX 19818. CaSki cells were treated with different concentrations of HBX 19818 or DMSO as indicated. Total cell lysates were subjected to western blotting using USP7, β-actin and HPV16 E7 specific antibodies. FIG. 1E. The bar chart showing the relative protein level of HPV16 E7 treated with different concentrations of HBX 19818 normalized by β-actin (n=3). Data are expressed as mean±SEM. FIG. 1F. The curve chart showing the level of E7 protein with increasing concentrations of HBX 19818 treatment. The percentage of HPV16 E7 protein level was analyzed using the non-linear regression function in GraphPad™ Prism 9. Error bars show standard errors of the mean (SEM). *: P<0.05; […]***: P<0.001.
Firstly, we screened four USP7-specific inhibitors (P5091, FT671. GNE-6776, and HBX 19818) and 1 pan-USPs inhibitor (PR-619) to characterize their inhibitory effect on E7 expression in HPV-containing cancer cells. We treated CaSki (HPV16-positive) cancer cells with P5091 at 5 μM and 10 μM; FT671, GNE-6776 and PR-619 at 3 μM and 15 μM; as well as HBX 19818 at 3 μM and 6 μM. These concentrations were chosen based on the reported IC50 values. After 24-hr treatment, the cells were collected, and total cell lysates were resolved by SDS-PAGE. The expression levels of USP7 and E7 were detected using respective specific antibodies.

[2] = test system: HPV16 E7 protein in CaSki cells; assay: Cycloheximide chase assay of E7 stability in CaSki cells; format: cell-based; details: 3 μM for 24 hrs, then 10 μg/ml cycloheximide, E7 alone 40.32±0.94 mins
Procedure: (§1) FIGS. 2A-2C HBX 19818 treatment destabilized the steady-state level of HPV16 E7. FIG. 2A. Immunoblots showing the protein levels of HPV16 E7, endogenous ubiquitin and USP7. CaSki cells were either transfected with expression plasmids pcDNA 3.1 (left panel) or pcDNA:Flag-USP7, treated with 3 μM of HBX 19818. After 24 hr, the cells were treated with 10 μg/ml cycloheximide at different durations, as indicated. As a control, the cells were also treated with 5 μg/ml MG132 (a proteasome inhibitor) for 2 hrs prior to adding cycloheximide. The cells were harvested and subjected to western blotting using the respective specific antibodies as indicated. Beta-actin (β-actin) was included as a loading control. CHX: cycloheximide; KDa: kilodalton. FIG. 2B. The curves showing the level of HPV16 E7 protein when co-overexpressed with USP7 or treated with HBX 19818 at different time points. The stability of HPV16 E7 was analyzed using the one-phase exponential decay function in GraphPad™ Prism 9. Error bars indicate standard error of the mean (SEM). FIG. 2C. […] Data are expressed as mean±SEM. ns: not significant, P>0.05; *: P<0.05.
(§2) We next wanted to assess whether HBX 19818 can reverse USP7-mediated deubiquitination of E7. […] The expression levels of Flag-USP7, endogenous ubiquitin, and E7 were detected using anti-Flag-, ubiquitin- and HPV16 E7-specific antibodies, respectively (FIG. 2A). […]

ubiquitin in CaSki cells = assay: Endogenous ubiquitin level by western blotting in CaSki cells; format: cell-based, human; details: 3 μM, independent of cycloheximide
Procedure: as §1, §2

[3] = test system: CaSki (HPV16-positive) cancer cells; assay: Cell proliferation, cell counting kit-8 (CCK8) assay, CaSki; format: cell-based, human; details: DMSO 10.38±0.90 folds
Procedure: (§3) FIGS. 3A-3B HBX 19818 inhibited proliferation of CaSki cells, but not SCC25 cells. The growth curves showing the cell proliferation of (FIG. 3A) CaSki (HPV16-positive) and (FIG. 3B) SCC25 (HPV-negative) cancer cells in the presence or absence of HBX 19818. Cell proliferation of CaSki was assessed using cell counting kit 8 (CCK8) assay. Cells were seeded into 96-well plates and incubated with either DMSO (vehicle control) or HBX 19818 at 3 μM or 6 μM for different days as indicated. Optical density (OD) value at 450 nm indicating relative proliferation was measured daily (n=3). Error bars indicate standard error of the mean (SEM).
(§4) We assessed the ability of CaSki (HPV16 positive cells) and SCC25, which are HPV-null cells, to proliferate using a cell counting kit-8 (CCK8) assay. This assay measures the ability of viable cells to metabolize soluble tetrazolium salt (WST-8) to orange formazan, in which the latter can be measured at optical density (OD) of […]. A day prior to drug treatment, CaSki and SCC25 were seeded into each well of 96-well plates at a density of 2000 cells/well in 100 μL of DMEM containing 10% FBS. The cells were treated with either DMSO (vehicle control) or HBX 19818 at 3 μM and 6 μM for 24, 72, and 96 hrs. […] The OD value of the medium at 450 nm was measured using LEDETECT 96 microplate reader (Labexim Products).

[4] = test system: SCC25 (HPV-negative) cancer cells; assay: Cell proliferation, cell counting kit-8 (CCK8) assay, SCC25; format: cell-based, human; details: DMSO 10.45±0.88 folds
Procedure: as §3, §4

[5] = test system: CaSki (HPV16-positive) cancer cells; assay: Soft agar colony formation assay, CaSki; format: cell-based, human; details: 14 days, DMSO 88.17±5.92
Procedure: (§5) FIGS. 4A-4D HBX 19818 inhibited transformation of CaSki cells, but not SCC25 cells. The representative images showing the whole-well view and morphology of colonies formed by (FIG. 4A) CaSki (HPV16-positive) and (FIG. 4C) SCC25 (HPV-negative) cancer cells. Cells were seeded into 0.35% agarose gel containing DMEM with 10% FBS, and grew for 14 days. The agarose gel was stained with crystal violet, and images were taken using a digital camera. The colony morphology was observed using an optical microscope at 100× magnification. The bar chart comparing the number of colonies of (FIG. 4B) CaSki or (FIG. 4D) SCC25 cells with DMSO or HBX 19818 at concentrations indicated (n=3). Data indicated are mean±standard error of the mean (SEM). *: P<0.05.
(§6) We performed a soft agar colony formation assay to assess the ability of CaSki and SCC25 to grow in an anchorage-independent manner, in the presence or absence of HBX 19818 treatment. CaSki and SCC25 cells were seeded into 0.7% soft agar containing 2×DMEM and 20% FBS. The cells were incubated at 37° C. for 14 days. After a 2-week incubation, the agarose gel was stained with crystal violet. Colonies formed were counted and measured. We observed that CaSki cells treated with DMSO formed a dramatically higher number of colonies (88.17±5.92) than those treated with 6 μM of HBX 19818 (62.67±2.03) (FIGS. 4A and 4B). […]

[6] = test system: SCC25 (HPV-negative) cancer cells; assay: Soft agar colony formation assay, SCC25; format: cell-based, human; details: SCC25, HBX 19818 versus DMSO, 14 days
Procedure: as §5, §6

[7] = test system: CaSki (HPV16-positive) cancer cells; assay: Wound-healing (migration) assay, CaSki; format: cell-based, human; details: 24 hrs, DMSO 98.46%±0.36%
Procedure: (§7) The representative images showing the cell migration of (FIG. 5A) CaSki (HPV16-positive) and (FIG. 5C) SCC25 (HPV-negative) cancer cells after scratching. Cells were seeded into 12-well plate and scratched when reached 100% confluence, followed by incubation with DMSO (vehicle control) or HBX 19818 at concentrations indicated for 24 hours. Cell migration was observed and recorded using a time-lapse microscope every 6 hours. The bar chart comparing the relative coverage areas of (FIG. 5B) CaSki and (FIG. 5D) SCC25 with DMSO or HBX 19818 (n=3). Data indicated are mean±SEM. *: P<0.05; **: P<0.01.
(§8) We performed a wound-healing assay to ascertain the ability of CaSki and SCC25 cells to migrate under HBX 19818 treatment. Cells were seeded into a 12-well plate and cultured to reach 100% confluency. Cells were then scratched to make artificial wounds on the monolayer of cells and incubated with either DMSO or HBX 19818 at 3 μM or 6 μM. Cells migration was monitored using time-lapse microscopy where images were taken 6-hourly for a duration of 24 hrs.

[8] = test system: SCC25 (HPV-negative) cancer cells; assay: Wound-healing (migration) assay, SCC25; format: cell-based, human; details: SCC25, HBX 19818 versus DMSO, 24 hrs
Procedure: as §7, §8

[9] = test system: CaSki (HPV-positive) cancer cells; assay: Matrigel invasion assay, CaSki; format: cell-based, human; details: 24-hr, DMSO 100%
Procedure: (§9) FIGS. 6A-6D. […] The representative images showing the cell invasion of (FIG. 6A) CaSki (HPV-positive) and (FIG. 6C) SCC25 (HPV-negative) cancer cells in the presence of DMSO (vehicle control) or HBX 19818 at concentrations indicated. Cells were seeded into the invasion chamber with plain medium, followed by treatment with either DMSO or HBX 19818 for 24 hours. Cell invasion was observed and recorded using an optical microscope at 40× magnification. The bar graph comparing the relative cell invasion ability of (FIG. 6B) CaSki and (FIG. 6D) SCC25 with DMSO or HBX 19818 (n=3). Data indicated are mean±standard error of the mean (SEM). **: P<0.01; ***: P<0.001.
(§10) We next examined the ability of CaSki and SCC25 cells to invade through Matrigel, which mimics the basement membrane. Approximately 5×10^4 of CaSki and SCC25 cells were seeded into the inserts containing serum-free DMEM medium with either DMSO or HBX 19818. We included MCF7, a non-invasive breast cancer cell line as a negative control. DMEM supplemented with 20% FBS was added into the bottom chamber to attract cells to migrate from the upper to the lower surface of the inserts. After 24-hr incubation at 37° C., the non-invasive cells on the upper surface were removed using cotton swabs. Cells on the lower surface were fixed and stained using hematoxylin. […]

[10] = test system: SCC25 (HPV-negative) cancer cells; assay: Matrigel invasion assay, SCC25; format: cell-based, human; details: SCC25, HBX 19818 versus DMSO, 24-hr
Procedure: as §9, §10

Molecule | E7 protein level after inhibitor treatment ([1]; 15 μM) | Level of E7 with increasing concentration ([1]; 1.5 μM, 3.0 μM, 6.0 μM and 12.0 μM) | E7 protein level after inhibitor treatment ([1]; 3 μM and 6 μM, triplicate experiments) | IC50 ([1]; non-linear regression, read-out: Concentration sufficient to halve the level of E7 protein) [µM] | Half-life of E7 [2] [min] | Level of ubiquitin (ubiquitin in CaSki cells) | Cell proliferation ability (relative OD 450 nm) ([3]; 3 μM) [folds] | Cell proliferation ability (relative OD 450 nm) ([3]; 6 μM) [folds] | Cell proliferation ability (relative OD 450 nm) ([4]; SCC25, 3 μM) [folds] | Cell proliferation ability (relative OD 450 nm) ([4]; SCC25, 6 μM) [folds] | Number of colonies ([5]; 3 μM) | Number of colonies ([5]; 6 μM) | Number of colonies [6] | Cell migration ability (relative coverage area) ([7]; 3 μM) | Cell migration ability (relative coverage area) ([7]; 6 μM) | Cell migration ability [8] | Relative invasive ability ([9]; 3 μM) | Relative invasive ability ([9]; 6 μM) | Invasive ability [10]
CCc1c(-c2ccc(C(=O)NC)nc2)cnc(N)c1-c1ccc(O)cc1 [GNE-6776] | decreased the E7 protein level drastically |  |  |  |  |  |  |  |  |  |  |  |  |  |  |  |  |  | 
HBX 19818 |  | decreased at a dose-dependent manner | dramatic reduction of E7 protein level | 2.8 | 27.45 ± 0.88 | increased level of ubiquitin | 7.82±1.14 | 4.29±0.31 | 10.12±0.94 | 7.29±1.24 | 74.67±7.99 | 62.67±2.03 | no difference in the number of colonies | 85.58%±4.39% | 53.24%±8.96% | no differences were observed | 30%±2.97% | 13.85%±1.21% | similar
